Reference: patent US6302837A, “Benzothiophene, benzofuran and indole compounds” (Adir et Compagnie, priority 1999, dated 2001)
pIC50: −log10 of the molar value.

molecular target: recombinant active human PAI-1 (Homo sapiens, UniProt P05121); experiment: Inhibition of the activity of PAI-1 in vitro (fibrin clot breakdown, turbidity); assay type: biochemical; conditions: absorbance two hours after start of fibrin formation, 50 mM phosphate buffer pH 7.4, tissue plasminogen activator, fibrinogen, thrombin, read-out: IC50 (concentration of product that inhibits PAI-1 activity by 50%)
Method: Inhibition of the activity of PAI-1 was effected in vitro in microplate wells in which the formation and then breakdown of a fibrin clot is monitored continuously by measurement of its turbidity using a spectrophotometer. To do so, using, as diluent, a 50 mM phosphate buffer pH 7.4 containing 0.05% of bovine serum albumin, […] of the inhibitor is placed in the presence of 50 μl of a 2 nM solution of recombinant active human PAI-1 for 5 minutes at ambient temperature. 50 μl of a 0.42 nM solution of tissue plasminogen activator, 50 μl of an 800 nM solution of human plasminogen and 50 μl of a 2 g/liter solution of fibrinogen are then added and the fibrin formation is triggered by the addition of 50 μl of 14 nM purified human thrombin. In the absence of the product, inhibition of breakdown two hours after the start of fibrin formation is measured by the absorbance of the clot and represents 100% of the PAI-1 activity. In the absence of the product and of PAI-1, breakdown is measured by the absorbance of the broken-down clot and represents 0% of the PAI-1 activity. The concentration of product that inhibits PAI-1 activity by 50% is determined by measuring the absorbance of the clot two hours after fibrin formation in the presence of PAI-1 and of an increasing concentration of the product.

Sequence of recombinant active human PAI-1 (P05121 24-402): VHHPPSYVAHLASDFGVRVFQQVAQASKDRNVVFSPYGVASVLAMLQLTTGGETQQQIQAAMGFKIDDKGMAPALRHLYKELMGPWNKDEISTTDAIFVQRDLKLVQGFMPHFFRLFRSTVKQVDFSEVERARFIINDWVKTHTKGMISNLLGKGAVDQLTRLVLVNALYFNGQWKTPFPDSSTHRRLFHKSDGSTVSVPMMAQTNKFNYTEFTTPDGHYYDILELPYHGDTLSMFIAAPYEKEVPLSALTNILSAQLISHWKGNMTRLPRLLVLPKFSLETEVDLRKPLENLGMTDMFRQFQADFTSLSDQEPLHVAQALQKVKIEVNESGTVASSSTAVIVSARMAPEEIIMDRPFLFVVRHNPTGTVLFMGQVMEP

Row | pIC50 | Compound
1 | 6.89 | O=C(O)/C(=C/c1sc2cc(OCc3ccc(-c4ccccc4)cc3)c(OCc3ccc(-c4ccccc4)cc3)cc2c1Oc1ccc(Cl)cc1)c1ccncc1 [Example 2, (E)-3-[5,6-Bis-([1,1'-biphenyl]-4-ylmethoxy)-3-(4-chlorophenoxy)-benzo[b]thiophen-2-yl]-2-(4-pyridyl)2-propenoic acid]
2 | 6.28 | O=C(O)/C(=C/c1sc2cc(OCc3ccc(-c4ccccc4)cc3)c(OCc3ccc(-c4ccccc4)cc3)cc2c1Oc1cccnc1)c1ccncc1 [Example 10]
3 | 7.22 | O=C(O)/C(=C/c1sc2cc(OCc3ccc(-c4ccccc4)cc3)c(OCc3ccc(-c4ccccc4)cc3)cc2c1Oc1ccccc1)c1ccncc1 [Example 26, (E)-3-[5,6-Bis([1,1'-biphenyl]-4-ylmethoxy)-3-phenoxy-benzo[b]thiophen-2-yl]-2-(4-pyridyl)-2-propenoic acid]
